System: SD rat with neuropathic pain model induced by spared nerve injury (SNI)
Test: Neuropathic pain model induced by spared nerve injury
Format: in vivo
Details: SNI SD rats, po BID, 60 mg/kg/day, 20 days

## NCC1(CC(=O)O)CCCCC1 [gabapentin]
  course of efficacy over the study: gradually reduced

Source: article PMC9072249 (Acta Pharmaceutica Sinica. B, 2021)
